Measurements taken from ChEMBL document CHEMBL1144358, “LEA3D: a computer-aided ligand design for structure-based drug design” (J Med Chem, 2005).

molecular target: T1, Thymidylate kinase (Mycobacterium tuberculosis, UniProt P9WKE1); test: Binding affinity towards mycobacterium tuberculosis thymidine monophosphate kinase; NI=No inhibition
T1 sequence (P9WKE1 whole entry): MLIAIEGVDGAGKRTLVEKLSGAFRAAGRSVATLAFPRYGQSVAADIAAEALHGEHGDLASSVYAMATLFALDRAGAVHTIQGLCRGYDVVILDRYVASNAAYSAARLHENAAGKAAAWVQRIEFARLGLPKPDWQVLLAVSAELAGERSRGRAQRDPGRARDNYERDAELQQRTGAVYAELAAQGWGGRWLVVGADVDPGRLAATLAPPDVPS

Row | Structure (SMILES) | Ki
1 | O=c1[nH]c(=O)n(Cc2ccccc2)cc1F | Not Active
2 | Cc1cn(Cc2ccc(CCC#N)cc2)c(=O)[nH]c1=O | Not Active
3 | CCOC(=O)/C=C/c1ccc(Cn2cc(C)c(=O)[nH]c2=O)cc1 | Not Active
4 | Cc1cn(Cc2ccc(/C=C/C(=O)O)cc2)c(=O)[nH]c1=O | Not Active
5 | Cc1cn(Cc2ccc(/C=C/C#N)cc2)c(=O)[nH]c1=O | Not Active

molecular target: T1, Thymidylate kinase; test: Binding affinity towards mycobacterium tuberculosis thymidine monophosphate kinase

Row | Structure (SMILES) | Ki
6 | O=C(O)CCCc1ccc(Cn2cc(Br)c(=O)[nH]c2=O)cc1 | 12.3 µM
